Reference: US20230146455A1, “TREATMENT OF INFLAMMATORY DISEASES WITH PEPTIDES AND PHARMACEUTICAL COMPOSITIONS” (Yuyu Pharma, Inc., priority 2020, published 2023)
Values joined by “and” are separate entries in the source; they are usually repeats but may differ in a detail not shown here. Identical values can stand only once. Where a SMILES comes first, the peptide text is derived from it. [ ]: non-standard residue; d: D form. Hyp = O=C(O)[C@@H]1C[C@@H](O)CN1

Tested on: IL-2
Assay: Example 9 Luminex, LPS hPBMCs: IL-2
Type: cell-based, human
Conditions: for IL-2 Concentration: dilution 2.0
Method: Treatment Human PBMCs were pretreated with YY-101, YDE-011 and YDE-043 or reference compound; Xiidra® at various concentration (ranging from 1 nM to 100 uM) for 2 h before stimulation. An equal volume of 0.5% DMSO was used as a vehicle control. Then, the cells were treated with LPS at 5 ug/ml. The supernatants from treated cells were harvested at 24 h and placed in a 96 well for Luminex cytokine & chemokine profiling using a Luminex 200 multiplex assay (Luminex; R&D system, USA).
The main study arm with triplicate wells per group in a 24-well plate: • 1. Blank • 2. PBMC: 0.5% DMSO • 3. PBMC+LPS (5 ug/ml) • 4. PBMC+YY-101 100 uM • 5. PBMC+YY-101 10 uM • 6. PBMC+YY-101 1 uM • 7. PBMC+YY-101 0.1 uM • 8. PBMC+YY-101 0.01 uM • 9. PBMC+LPS (5 ug/ml)+Xiidra®100 uM • 10. PBMC+LPS (5 ug/ml)+Xiidra® 10 uM • 11. PBMC+LPS (5 ug/ml)+Xiidra® 1 uM • 12. PBMC+LPS (5 ug/ml)+Xiidra®0.1 uM • 13. PBMC+LPS (5 ug/ml)+Xiidra®0.01 uM • 14. PBMC+LPS (5 ug/ml)+Xiidra®0.001 uM • 15. PBMC+LPS (5 ug/ml)+YY-101 100 uM • 16. PBMC+LPS (5 ug/ml)+YY-101 10 uM • 17. PBMC+LPS (5 ug/ml)+YY-101 1 uM • 18. PBMC+LPS (5 ug/ml)+YY-101 0.1 uM • 19. PBMC+LPS (5 ug/ml)+YY-101 0.01 uM • 20. PBMC+LPS (5 ug/ml)+YY-101 0.001 uM • 21. PBMC+LPS (5 ug/ml)+YDE-011 100 uM • 22. PBMC+LPS (5 ug/ml)+YDE-011 10 uM • 23. PBMC+LPS (5 ug/ml)+YDE-011 1 uM • 24. PBMC+LPS (5 ug/ml)+YDE-011 0.1 uM • 25. PBMC+LPS (5 ug/ml)+YDE-011 0.01 uM • 26. PBMC+LPS (5 ug/ml)+YDE-011 0.001 uM • 27. PBMC+LPS (5 ug/ml)+YDE-043 100 uM • 28. PBMC+LPS (5 ug/ml)+YDE-043 10 uM • 29. PBMC+LPS (5 ug/ml)+YDE-043 1 uM • 30. PBMC+LPS (5 ug/ml)+YDE-043 0.1 uM • 31. PBMC+LPS (5 ug/ml)+YDE-043 0.01 uM • 32. PBMC+LPS (5 ug/ml)+YDE-043 0.001 uM
Multiplex assay was used to measure 30 cytokines and chemokines. The 1:2, 1:10 and 1:200 diluted cell supernatant and serial dilution of the standard were dispensed into a 96 well plate at 50 ul/well. Then, the pre-mixed cocktail of antibody-coated magnetic beads was dispensed at 50 ul/well and incubated at room temperature for 2 h in a horizontal orbital microplate shaker at 800±500 rpm. The beads were washed using a magnetic device to prevent loss. The biotin-antibody was dispensed in 50 ul of each well and incubated at room temperature for 1 h in a shaker at 800±500 rpm. After washing, streptavidin-PE was added at 50 ul/well and incubated at room temperature for 30 min in a shaker under the same conditions. Finally, after washing, wash buffer (100 ul/well) was added to the plate and incubated in a shaker for 2 min. The Luminex™ 200 setting were set according to the manufacturer's protocol. The data was calculated with a standard five-parameter logistic nonlinear regression analysis of the data (xPonent software 4.2, USA). The levels of cytokine/chemokine are normalized to the live cell counts (1×10^5 cells/mL) and presented as concentrations per mL (pg/mL or ng/mL).

[1] = PBMC + LPS(5 ug/ml) + test article 0.001 uM, Mean
[2] = PBMC + LPS(5 ug/ml) + test article 0.001 uM, single replicates
[3] = PBMC + LPS(5 ug/ml) + test article 0.01 uM, Mean
[4] = PBMC + LPS(5 ug/ml) + test article 0.01 uM, single replicates
[5] = PBMC + LPS(5 ug/ml) + test article 0.1 uM, Mean
[6] = PBMC + LPS(5 ug/ml) + test article 0.1 uM, single replicates
[7] = PBMC + LPS(5 ug/ml) + test article 1 uM, Mean
[8] = PBMC + LPS(5 ug/ml) + test article 1 uM, single replicates
[9] = PBMC + LPS(5 ug/ml) + test article 10 uM, Mean
[10] = PBMC + LPS(5 ug/ml) + test article 10 uM, single replicates
[11] = PBMC + LPS(5 ug/ml) + test article 100 uM, Mean
[12] = PBMC + LPS(5 ug/ml) + test article 100 uM, single replicates
[13] = PBMC + test article 0.01 uM, no LPS, Mean
[14] = PBMC + test article 0.01 uM, no LPS, single replicates
[15] = PBMC + test article 0.1 uM, no LPS, Mean
[16] = PBMC + test article 0.1 uM, no LPS, single replicates
[17] = PBMC + test article 1 uM, no LPS, Mean
[18] = PBMC + test article 1 uM, no LPS, single replicates
[19] = PBMC + test article 10 uM, no LPS, Mean
[20] = PBMC + test article 10 uM, no LPS, single replicates
[21] = PBMC + test article 100 uM, no LPS, Mean
[22] = PBMC + test article 100 uM, no LPS, single replicates

## CC(C)C[C@H](NC(=O)CNC(=O)[C@H](CC(=O)O)NC(=O)[C@H](CCC(N)=O)NC(=O)CNC(=O)[C@@H]1C[C@@H](O)CN1)C(=O)N[C@@H](C)C(=O)NCC(=O)N1CCC[C@H]1C(=O)N[C@@H](CCCCN)C(=O)O [YY-101] (H-[Hyp]GQDGLAGPK-OH; N-terminus and C-terminus assumed)
[1]
  IL-2 conc/live cell: 0.9 pg/10^5
  MFI, Bead name: IL-2: 16.3
  IL-2 Concentration: 5.7 pg/mL
[2]
  IL-2 Concentration: 3.4 pg/mL and 7.6 pg/mL and 6.2 pg/mL
  IL-2 conc/live cell: 0.6 pg/10^5 and 1.1 pg/10^5 and 0.9 pg/10^5
  MFI, Bead name: IL-2: 13.0 and 19.0 and 17.0
[3]
  IL-2 conc/live cell: 1.4 pg/10^5
  MFI, Bead name: IL-2: 20.3
  IL-2 Concentration: 8.6 pg/mL
[4]
  IL-2 Concentration: 6.9 pg/ml (2×) and 11.8 pg/ml
  IL-2 conc/live cell: 1.1 pg/10^5 (2×) and 2.0 pg/10^5
  MFI, Bead name: IL-2: 18.0 (2×) and 25.0
[5]
  IL-2 conc/live cell: 0.0 pg/10^5
  MFI, Bead name: IL-2: 6.3
[6]
  IL-2 conc/live cell: 0.0 pg/10^5
  MFI, Bead name: IL-2: 8.0 (2×) and 3.0
[7]
  IL-2 conc/live cell: 0.6 pg/10^5
  MFI, Bead name: IL-2: 13.7
  IL-2 Concentration: 3.8 pg/mL
[8]
  IL-2 Concentration: 5.2 pg/mL and 3.7 pg/mL and 2.6 pg/mL
  IL-2 conc/live cell: 0.8 pg/10^5 and 0.5 pg/10^5 and 0.4 pg/10^5
  MFI, Bead name: IL-2: 15.5 and 13.5 and 12.0
[9]
  IL-2 conc/live cell: 0.8 pg/10^5
  MFI, Bead name: IL-2: 15.7
  IL-2 Concentration: 5.3 pg/mL
[10]
  IL-2 Concentration: 8.0 pg/mL and 4.1 pg/mL and 3.7 pg/mL
  IL-2 conc/live cell: 1.3 pg/10^5 and 0.6 pg/10^5 and 0.5 pg/10^5
  MFI, Bead name: IL-2: 19.5 and 14.0 and 13.5
[11]
  IL-2 conc/live cell: 0.1 pg/10^5
  MFI, Bead name: IL-2: 9.0
  IL-2 Concentration: 1.1 pg/mL
[12]
  IL-2 Concentration: 1.9 pg/mL and 0.4 pg/mL
  IL-2 conc/live cell: 0.3 pg/10^5 and 0.1 pg/10^5 and 0.0 pg/10^5
  MFI, Bead name: IL-2: 11.0 and 9.0 and 7.0
[13]
  IL-2 conc/live cell: 11.5 pg/10^5
  MFI, Bead name: IL-2: 93.3
  IL-2 Concentration: 57.4 pg/mL
[14]
  IL-2 Concentration: 56.9 pg/mL and 57.9 pg/mL
  IL-2 conc/live cell: 10.9 pg/10^5 and 12.1 pg/10^5
  MFI, Bead name: IL-2: 92.5 and 94.0
[15]
  IL-2 conc/live cell: 11.5 pg/10^5
  MFI, Bead name: IL-2: 96.3
  IL-2 Concentration: 59.3 pg/mL
[16]
  IL-2 Concentration: 45.4 pg/mL and 73.2 pg/mL
  IL-2 conc/live cell: 10.3 pg/10^5 and 12.6 pg/10^5
  MFI, Bead name: IL-2: 75.0 and 117.5
[17]
  IL-2 conc/live cell: 11.4 pg/10^5
  MFI, Bead name: IL-2: 101.5
  IL-2 Concentration: 62.8 pg/mL
[18]
  IL-2 Concentration: 59.8 pg/mL and 65.7 pg/mL
  IL-2 conc/live cell: 10.9 pg/10^5 and 11.9 pg/10^5
  MFI, Bead name: IL-2: 97.0 and 106.0
[19]
  IL-2 conc/live cell: 11.3 pg/10^5
  MFI, Bead name: IL-2: 113.5
  IL-2 Concentration: 70.6 pg/mL
[20]
  IL-2 Concentration: 69.6 pg/mL and 71.5 pg/mL
  IL-2 conc/live cell: 10.9 pg/10^5 and 11.7 pg/10^5
  MFI, Bead name: IL-2: 112.0 and 115.0
[21]
  IL-2 conc/live cell: 2.2 pg/10^5
  MFI, Bead name: IL-2: 29.0
  IL-2 Concentration: 14.6 pg/mL
[22]
  IL-2 Concentration: 13.2 pg/mL and 16.0 pg/mL
  IL-2 conc/live cell: 2.1 pg/10^5 and 2.3 pg/10^5
  MFI, Bead name: IL-2: 27.0 and 31.0
